Assay results as given in patent US10221177B2 (HYDRA BIOSCIENCES, INC., priority 2014, dated 2019).

Biological target: human TRPA1 (Homo sapiens (Human), UniProt O75762)
Assay: In vitro inhibition of human TRPA1, whole cell patch configuration
Assay type: cell-based
Settings: current activation 10 μM AITC, tested concentrations 320 pM to 3.2 μM, read-out: hTRPA1 IC50
Method: All currents were recorded in whole-cell configuration using EPC-9 and EPC-10 amplifiers and Patchmaster software (HEKA) or similar. […] The standard bath solution contained 150 mM NaCl, 10 mM HEPES, 10 mM glucose, 4.5 mM KCl, 1 mM EGTA, 3 mM MgCl2, with pH adjusted to 7.4 with NaOH. In some instances, 2 mM CaCl2 was added in place of EGTA and the concentration of MgCl2 was reduced to 1 mM.
Data were collected either by continuous recordings at −60 mV or by applying voltage ramps from a holding potential of −40 mV every 4 s. Continuous recordings were collected at 400 Hz and digitally filtered off-line at 10 Hz for presentation. Voltage ramps were applied from −100 mV or −80 mV to +100 mV or +80 mV over the course of 400 ms, and data were collected at 10 kHz and filtered at 2.9 kHz. Inward and outward currents were analyzed from the ramps at −80 and 80 mV, respectively. Liquid junction potential correction was not used.
Solutions were switched using a gravity-fed continuous focal perfusion system. To achieve rapid temperature changes, two temperature control, and perfusion systems were employed simultaneously. […] Temperatures were confirmed using a thermistor (Warner Instruments, TA-29), with temperatures at the recorded cell estimated to be within +/−2° C. of those reported.
The antagonist effects of compounds of Formula (I) against human TRPA1 (“hTRPA1”) in a whole cell patch configuration were evaluated using the in vitro assay described above.

human TRPA1, sequence (O75762 whole entry): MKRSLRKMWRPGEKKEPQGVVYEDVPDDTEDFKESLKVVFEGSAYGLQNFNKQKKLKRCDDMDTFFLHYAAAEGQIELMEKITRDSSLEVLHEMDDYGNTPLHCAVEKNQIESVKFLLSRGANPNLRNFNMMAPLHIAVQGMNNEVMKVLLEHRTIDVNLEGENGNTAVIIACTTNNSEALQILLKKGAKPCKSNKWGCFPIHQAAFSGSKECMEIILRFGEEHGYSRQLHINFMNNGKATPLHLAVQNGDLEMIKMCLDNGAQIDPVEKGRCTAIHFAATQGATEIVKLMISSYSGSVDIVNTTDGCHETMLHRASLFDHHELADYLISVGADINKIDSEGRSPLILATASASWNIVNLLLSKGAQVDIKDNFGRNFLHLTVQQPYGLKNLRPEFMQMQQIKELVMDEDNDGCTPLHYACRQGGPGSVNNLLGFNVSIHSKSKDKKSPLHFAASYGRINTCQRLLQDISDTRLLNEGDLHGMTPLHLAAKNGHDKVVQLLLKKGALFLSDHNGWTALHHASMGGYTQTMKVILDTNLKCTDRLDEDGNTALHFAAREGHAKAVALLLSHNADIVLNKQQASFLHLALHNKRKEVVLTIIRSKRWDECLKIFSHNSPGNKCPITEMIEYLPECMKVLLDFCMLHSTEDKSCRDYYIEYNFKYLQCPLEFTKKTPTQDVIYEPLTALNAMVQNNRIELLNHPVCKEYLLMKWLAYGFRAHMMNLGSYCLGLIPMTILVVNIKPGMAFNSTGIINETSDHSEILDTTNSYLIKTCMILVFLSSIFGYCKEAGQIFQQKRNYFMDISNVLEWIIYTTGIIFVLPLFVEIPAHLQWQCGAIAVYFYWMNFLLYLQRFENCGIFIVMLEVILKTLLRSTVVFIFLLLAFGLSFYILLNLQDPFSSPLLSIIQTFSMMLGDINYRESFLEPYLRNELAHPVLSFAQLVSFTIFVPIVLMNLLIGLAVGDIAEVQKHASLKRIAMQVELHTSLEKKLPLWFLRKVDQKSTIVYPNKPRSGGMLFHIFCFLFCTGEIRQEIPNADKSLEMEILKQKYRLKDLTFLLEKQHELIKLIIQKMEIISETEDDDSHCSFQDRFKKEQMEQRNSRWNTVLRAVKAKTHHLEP

| SMILES | IC50 [nM] |
| --- | --- |
| CC#CCn1c(=O)c2c(ncn2[C@@H](C)C(=O)Nc2cccc(-c3cnc(N4CC5C(C4)C5(F)F)nc3)n2)n(C)c1=O (stereo partly drawn) [Compound 169, (2S)-2-(1-(but-2-yn-1-yl)-3-methyl-2,6-dioxo-2,3-dihydro-1H-purin-7(6H)-yl)-N-(6-(2-(6,6-difluoro-3-azabicyclo[3.1.0]hexan-3-yl)pyrimidin-5-yl)pyridin-2-yl)propanamide] | 10 |
| CC(=O)Cn1c(=O)c2c(ncn2[C@@H](C)C(=O)Nc2cccc(-c3cnc(N4CC5C(C4)C5(F)F)cn3)n2)n(C)c1=O (stereo partly drawn) [Compound 257, (2S)—N-(6-(5-(6,6-difluoro-3-azabicyclo[3.1.0]hexan-3-yl)pyrazin-2-yl)pyridin-2-yl)-2-(3-methyl-2,6-dioxo-1-(2-oxopropyl)-2,3-dihydro-1H-purin-7(6H)-yl)propanamide] | 11 |
| Cc1cc(Cn2c(=O)c3c(ncn3CC(=O)Nc3ccc(Br)c(C(F)(F)F)n3)n(C)c2=O)no1 [Compound 200, N-(5-bromo-6-(trifluoromethyl)pyridin-2-yl)-2-(3-methyl-1-((5-methyl-isoxazol-3-yl)methyl)-2,6-dioxo-2,3-dihydro-1H-purin-7(6H)-yl)acetamide] | 34 |
| Cc1cc(Cn2c(=O)c3c(ncn3[C@@H](C)C(=O)Nc3cccc(-c4cnc(Cl)c(C(F)(F)F)c4)n3)n(C)c2=O)no1 [Compound 123, (S)—N-(6′-chloro-5′-(trifluoromethyl)-[2,3′-bipyridin]-6-yl)-2-(3-methyl-1-((5-methylisoxazol-3-yl)methyl)-2,6-dioxo-2,3-dihydro-1H-purin-7(6H)-yl)propanamide] | 2 |
| CC#CCn1c(=O)c2c(ncn2[C@@H](C)C(=O)Nc2csc(-c3cnc(N4CCC[C@@H]4C(F)(F)F)nc3)n2)n(C)c1=O [Compound 157, (S)-2-(1-(but-2-ynyl)-3-methyl-2,6-dioxo-2,3-dihydro-1H-purin-7(6H)-yl)-N-(2-(2-((R)-2-(trifluoromethyl)pyrrolidin-1-yl)pyrimidin-5-yl)thiazol-4-yl)propanamide] | 1 |
| CCc1cc(NC(=O)Cn2cnc3c2c(=O)n(Cc2cc(C)on2)c(=O)n3C)nc(C(F)(F)F)c1 [Compound 203, N-(4-ethyl-6-(trifluoromethyl)pyridin-2-yl)-2-(3-methyl-1-((5-methylisoxazol-3-yl)methyl)-2,6-dioxo-2,3-dihydro-1H-purin-7(6H)-yl)acetamide] | 1610 |
| CCC(=O)Cn1c(=O)c2c(ncn2[C@@H](C)C(=O)Nc2csc(-c3cnc(C)c(Cl)c3)n2)n(C)c1=O [Compound 90] | 3 |
| CC(=O)Cn1c(=O)c2c(ncn2[C@@H](C)C(=O)Nc2cncc(-c3cnc(C)c(Cl)c3)n2)n(C)c1=O [Compound 140, (S)—N-(6-(5-chloro-6-methylpyridin-3-yl)pyrazin-2-yl)-2-(3-methyl-2,6-dioxo-1(2-oxopropyl)-2,3-dihydro-1H-purin-7(6H)-yl)propanamide] | 32 |
| Cc1noc(Cn2c(=O)c3c(ncn3CC(=O)Nc3cccc(-c4cnc(C(F)(F)F)c(C)c4)n3)n(C)c2=O)n1 [Compound 222, 2-(3-methyl-1-((3-methyl-1,2,4-oxadiazol-5-yl)methyl)-2,6-dioxo-2,3-dihydro-1H-purin-7(6H)-yl)-N-(5′-methyl-6′-(trifluoromethyl)-[2,3′-bipyridin]-6-yl)acetamide] | 5 |
| Cc1cc(Cn2c(=O)c3c(ncn3[C@@H](C)C(=O)Nc3csc(-c4cnc(C)c(Cl)c4)n3)n(C)c2=O)no1 [Compound 91] | 2 |
| Cc1nc(Cn2c(=O)c3c(ncn3[C@@H](C)C(=O)Nc3cccc(-c4cnc(C(F)(F)F)nc4)n3)n(C)c2=O)no1 [Compound 171, (S)-2-(3-methyl-1-((5-methyl-1,2,4-oxadiazol-3-yl)methyl)-2,6-dioxo-2,3-dihydro-1H-purin-7(6H)-yl)-N-(6-(2-(trifluoromethyl)pyrimidin-5-yl)pyridin-2-yl)propanamide] | 23 |
| COCC(=O)Cn1c(=O)c2c(ncn2[C@@H](C)C(=O)Nc2cccc(-c3cnc(C(F)(F)F)nc3)n2)n(C)c1=O [Compound 59, (S)-2-(1-(3-methoxy-2-oxopropyl)-3-methyl-2,6-dioxo-2,3-dihydro-1H-purin-7(6H)-yl)-N-(6-(2-(trifluoromethyl)pyrimidin-5-yl)pyridin-2-yl)propanamide] | 45 |
| CC(=O)Cn1c(=O)c2c(ncn2[C@@H](C)C(=O)Nc2cccc(-c3ccc(C(F)(F)F)nc3)n2)n(C)c1=O [Compound 2, (S)-2-(3-methyl-2,6-dioxo-1-(2-oxopropyl)-2,3-dihydro-1H-purin-7(6H)-yl)-N-(6′-(trifluoromethyl)-[2,3′-bipyridin]-6-yl)propanamide] | 21 |
| CC(=O)Cn1c(=O)c2c(ncn2CC(=O)Nc2cncc(-c3cnc(C(F)(F)F)c(C)c3)n2)n(C)c1=O [Compound 232, 2-(3-methyl-2,6-dioxo-1-(2-oxopropyl)-2,3-dihydro-1H-purin-7(6H)-yl)-N-(6-(5-methyl-6-(trifluoromethyl)pyridin-3-yl)pyrazin-2-yl)acetamide] | 56 |
| Cc1nc(Cn2c(=O)c3c(ncn3CC(=O)Nc3cccc(-c4cnc(C)c(C(F)(F)F)c4)n3)n(C)c2=O)no1 [Compound 240] | 7 |
| CC#CCn1c(=O)c2c(ncn2[C@@H](C)C(=O)Nc2cccc(-c3cnc(N4CC5CC5C4)nc3)n2)n(C)c1=O (stereo partly drawn) [Compound 168, (2S)—N-(6-(2-(3-azabicyclo[3.1.0]hexan-3-yl)pyrimidin-5-yl)pyridin-2-yl)-2-(1-(but-2-yn-1-yl)-3-methyl-2,6-dioxo-2,3-dihydro-1H-purin-7(6H)-yl)propanamide] | 12 |
| CCC(=O)Cn1c(=O)c2c(ncn2[C@@H](C)C(=O)Nc2csc(-c3cnc(C)c(C(F)(F)F)c3)n2)n(C)c1=O [Compound 99, (S)-2-(3-methyl-2,6-dioxo-1-(2-oxobutyl)-2,3-dihydro-1H-purin-7(6H)-yl)-N-(2-(6-methyl-5-(trifluoromethyl)pyridin-3-yl)thiazol-4-yl)propanamide] | 1 |
| C[C@@H](C(=O)Nc1cncc(-c2ccc(C(F)(F)F)nc2)n1)n1cnc2c1c(=O)n(Cc1ccccn1)c(=O)n2C [Compound 9, (2S)-2-(3-methyl-2,6-dioxo-1-(pyridin-2-ylmethyl)-1,2,3,6-tetrahydropurin-7-yl)-N-(6-(6-(trifluoromethyl)pyridin-3-yl)pyrazin-2-yl)propanamide] | 59 |
| C[C@@H](C(=O)Nc1cccc(-c2cnc(C(F)(F)F)nc2)n1)n1cnc2c1c(=O)n(Cc1ccccn1)c(=O)n2C [Compound 5, (S)-2-(3-methyl-2,6-dioxo-1-(pyridin-2-ylmethyl)-2,3-dihydro-1H-purin-7(6H)-yl)-N-(6-(2-(trifluoromethyl)pyrimidin-5-yl)pyridin-2-yl)propanamide] | 39 |
| Cc1noc(Cn2c(=O)c3c(ncn3[C@@H](C)C(=O)Nc3csc(-c4cnc(C)c(C(F)(F)F)c4)n3)n(C)c2=O)n1 [Compound 108, (S)-2-(3-methyl-1-((3-methyl-1,2,4-oxadiazol-5-yl)methyl)-2,6-dioxo-2,3-dihydro-1H-purin-7(6H)-yl)-N-(2-(6-methyl-5-(trifluoromethyl)pyridin-3-yl)thiazol-4-yl)propanamide] | 1 |
| CC(=O)Cn1c(=O)c2c(ncn2[C@@H](C)C(=O)Nc2csc(-c3cnc(C)c(C(F)(F)F)c3)n2)n(C)c1=O [Compound 98, (S)-2-(3-methyl-2,6-dioxo-1-(2-oxopropyl)-2,3-dihydro-1H-purin-7(6H)-yl)-N-(2-(6-methyl-5-(trifluoromethyl)pyridin-3-yl)thiazol-4-yl)propanamide] | 3 |
| COc1cc(NC(=O)Cn2cnc3c2c(=O)n(Cc2cc(C)on2)c(=O)n3C)nc(C(F)(F)F)c1 [Compound 204, N-(4-methoxy-6-(trifluoromethyl)pyridin-2-yl)-2-(3-methyl-1-((5-methylisoxazol-3-yl)methyl)-2,6-dioxo-2,3-dihydro-1H-purin-7(6H)-yl)acetamide] | 3250 |
| CCC(=O)Cn1c(=O)c2c(ncn2[C@@H](C)C(=O)Nc2cccc(-c3ccc(C(F)(F)F)nc3)n2)n(C)c1=O [Compound 116, (S)-2-(3-methyl-2,6-dioxo-1-(2-oxobutyl)-2,3-dihydro-1H-purin-7(6H)-yl)-N-(6′-(trifluoromethyl)-[2,3′-bipyridin]-6-yl)propanamide] | > 3200 |
| CC(=O)Cn1c(=O)c2c(nc(C)n2CC(=O)Nc2cccc(-c3ccc(Cl)cc3)n2)n(C)c1=O [Compound 192, N-(6-(4-chlorophenyl)pyridin-2-yl)-2-(3,8-dimethyl-2,6-dioxo-1-(2-oxopropyl)-1,2,3,6-tetrahydropurin-7-yl)acetamide] | 33 |
| CC(=O)Cn1c(=O)c2c(ncn2[C@@H](C)C(=O)Nc2cncc(-c3cnc(C)c(C(F)(F)F)c3)n2)n(C)c1=O [Compound 109, (S)-2-(3-methyl-2,6-dioxo-1-(2-oxopropyl)-2,3-dihydro-1H-purin-7(6H)-yl)-N-(6-(6-methyl-5-(trifluoromethyl)pyridin-3-yl)pyrazin-2-yl)propanamide] | 8 |
